The source of these data is patent publication US20250195483A1, “SPIRO PIPERIDINE DERIVATIVES AS INHIBITORS OF APOL1 AND METHODS OF USING SAME” (Vertex Pharmaceuticals Incorporated, priority 2022, published 2025).

A value given as a limit tells only on which side of the number the result lay.

This test deals with T1, APOL1 (Homo sapiens, UniProt O14791).
T1 sequence (O14791 1-398): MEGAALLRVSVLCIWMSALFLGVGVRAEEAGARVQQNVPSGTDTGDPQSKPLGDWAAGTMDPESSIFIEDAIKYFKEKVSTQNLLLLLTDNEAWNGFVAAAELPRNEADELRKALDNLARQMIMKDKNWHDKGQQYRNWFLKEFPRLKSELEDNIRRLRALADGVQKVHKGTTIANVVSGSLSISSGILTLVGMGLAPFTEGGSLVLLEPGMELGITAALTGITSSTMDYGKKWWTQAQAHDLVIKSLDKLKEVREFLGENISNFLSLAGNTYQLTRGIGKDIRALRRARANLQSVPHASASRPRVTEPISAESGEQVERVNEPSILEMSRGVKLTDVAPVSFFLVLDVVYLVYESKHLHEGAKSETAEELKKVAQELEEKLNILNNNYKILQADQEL
Description: MultiTox-Fluor Multiplex Cytotoxicity Assay, tet-inducible APOL1 T-REx-HEK293 cells (G0, G1 or G2 clone not specified for Table 20). The test is classed as cell-based. The note with it: tet-induced, 24 hours with compound, ratio of dead to live cells, read-out: IP50 (i.e., IC50 for cell proliferation). Here is the method:
Human embryonic kidney (HEK293) cell lines containing a tet-inducible expression system (T-REx™; Invitrogen, Carlsbad, CA) and Adeno-associated virus site 1 pAAVS1-Puro-APOL1 G0 or pAAVS1-Puro-APOL1 G1 or pAAVS1-Puro-APOL1 G2 Clones G0 DC2.13, G1 DC3.25, and G2 DC4.44 were grown in a T-225 flask at ˜90% confluency in cell growth media (DMEM, 10% Tet-free FBS, 2 mM L-glutamine, 100 Units/mL penicillin-streptomycin, 5 μg/mL blasticidin S HCl, 1 μg/mL puromycin dihydrochloride). Cells were washed with DPBS and then trypsinized to dissociate from the flask. Media was used to quench the trypsin, cells were then pelleted at 200 g and resuspended in fresh cell assay media (DMEM, 2% Tet-free FBS, 2 mM L-glutamine, 100 Units/mL penicillin-streptomycin). Cells were counted and diluted to 1.17×10^6 cells/mL. 20 μL of cells (23,400/well) were dispensed in every well of a 384-well Poly-D-Lysine coated plate using the Multidrop dispenser. The plates were then incubated at room temperature for one hour.
Tetracycline is needed to induce APOL1 expression. 1 mg/mL tet stock in water was diluted to 250 ng/mL (5×) in cell assay media. 60 μL of cell assay media (no tet control) was dispensed in columns 1 and 24, and 60 μL of 5× tet in 384-PP-round bottom plate was dispensed in columns 2 to 23 with the Multidrop dispenser.
Assay ready plates from the Global Compound Archive were ordered using template 384_APOL1Cell_DR10n2_50 uM_v3. Compounds were dispensed at 200 nL in DMSO. The final top concentration was 10 μM with a 10 point 3-fold dilution in duplicate in the MultiTox assay.
20 μL was transferred from the 5× tet plate to the ARP and mixed, then 5 μL of 5× tet and the compounds were transferred to the cell plate and mixed using the Bravo. The cell plate was placed in the humidified 37° C. 5% CO2 incubator for 24 hours.
The MultiTox-Fluor Multiplex Cytotoxicity Assay was performed in accordance with the manufacturer's protocol. After cells were incubated with tet and compound for 24 hours, 25 μL of 1× MultiTox reagent was added to each well using the Multidrop dispenser; the plates were placed on a plate shaker (600 rpm) for 2 minutes, then centrifuged briefly and placed back in the 37° C. incubator for 30 minutes. The cell viability (excitation: 400 nm, emission: 486 nm) and cytotoxicity (excitation: 485 nm, emission: 535 nm) were read using the EnVision plate reader. A ratio of dead (cytotoxicity) to live (viability) cells was reported. Data was exported and analyzed in Genedata. Data was normalized using percent of control, no tet (100% viability), and 50 ng/mL tet treated (0% viability), and fit using Smart Fit settings in Genedata.
On to `O=C1Nc2ccc(CC(F)F)cc2C12CCN(Cc1cn[nH]c1)CC2` [Compound 35], for which the IC50 was at least 500 nM.
In the case of `CS(=O)(=O)CCn1cc(CN2CCC3(CC2)C(=O)Nc2c(Cl)cc(Cl)cc23)cn1` [Compound 36], the IC50 was in the range of 50 to 500 nM.
In the case of `CN1C(=O)C2(CCN(Cc3cnn(CCS(C)(=O)=O)c3)CC2)c2cc(Cl)ccc21` [Compound 37, 5-chloro-1-methyl-1′-[[1-(2-methylsulfonylethyl)pyrazol-4-yl]methyl]spiro[indoline-3,4′-piperidine]-2-one], the IC50 was 50 to 500 nM.
`CN1C(=O)C2(CCN(Cc3cn[nH]c3)CC2)c2cc(Cl)ccc21` [Compound 38]: the IC50 lay within 50 to 500 nM.
In the case of `CN1C(=O)C2(CCN(Cc3cnn(C)c3)CC2)c2cc(Cl)ccc21` [Compound 39] it was 50 to 500 nM.
On to `CN1C(=O)C2(CCN(Cc3cnc(NC(C)(C)CO)nc3)CC2)c2cc(Cl)ccc21` [Compound 40], for which the IC50 fell in the range of 50 to 500 nM.
Next, `CC(CO)(CO)Cn1cc(CN2CCC3(CC2)C(=O)Nc2ccc(Cl)cc23)nn1` [Compound 41, 5-chloro-1′-[[1-[3-hydroxy-2-(hydroxymethyl)-2-methyl-propyl]triazol-4-yl]methyl]spiro[indoline-3,4′-piperidine]-2-one]: 50 to 500 nM; `CN1C(=O)C2(CCN(Cc3cn(CCO)nn3)CC2)c2cc(Cl)ccc21` [Compound 43]: at least 500 nM.
Next, `CN1C(=O)C2(CCN(Cc3cn(CC(C)(CO)CO)nn3)CC2)c2cc(Cl)ccc21` [Compound 44]: at least 500 nM; `CS(=O)(=O)CCn1cc(CN2CCC3(CC2)C(=O)N(CCO)c2ccc(Cl)cc23)cn1` [Compound 45, 5-chloro-1-(2-hydroxyethyl)-1′-[[1-(2-methylsulfonylethyl)pyrazol-4-yl]methyl]spiro[indoline-3,4′-piperidine]-2-one]: 50 to 500 nM; `O=C1N(CCO)c2ccc(Cl)cc2C12CCN(Cc1cn[nH]c1)CC2` [Compound 46]: 50 to 500 nM.
Turning to `CCN1C(=O)C2(CCN(Cc3cnn(CCS(C)(=O)=O)c3)CC2)c2cc(Cl)ccc21` [Compound 48], the IC50 fell in the range of 50 to 500 nM.
In the case of `CS(=O)(=O)CCn1cc(CN2CCC3(CC2)C(=O)N(C2COC2)c2ccc(Cl)cc23)cn1` [Compound 49] it was 50 to 500 nM; in that of `CS(=O)(=O)CCn1cc(CN2CCC3(CC2)C(=O)N(CC(F)(F)F)c2ccc(Cl)cc23)cn1` [Compound 50], 50 to 500 nM.
Take `COCCN1C(=O)C2(CCN(Cc3cnn(CCS(C)(=O)=O)c3)CC2)c2cc(Cl)ccc21` [Compound 51]: the IC50 was at least 500 nM.
Turning to `CN1C(=O)C2(CCN(Cc3cnn(CC(C)(C)O)c3)CC2)c2cc(Cl)ccc21` [Compound 52, 5-chloro-1′-[[1-(2-hydroxy-2-methyl-propyl)pyrazol-4-yl]methyl]-1-methyl-spiro[indoline-3,4′-piperidine]-2-one], the IC50 is at most 50 nM.
In the case of `CN1C(=O)C2(CCN(Cc3cnn(CC(O)C(F)(F)F)c3)CC2)c2cc(Cl)ccc21` (centres unmarked) [Compound 53], the IC50 fell in the range of 50 to 500 nM.
`CN1C(=O)C2(CCN(Cc3cnn(CC4(O)CCS(=O)(=O)CC4)c3)CC2)c2cc(Cl)ccc21` [Compound 54]: the IC50 was 50 to 500 nM.
In the case of `CN1C(=O)C2(CCN(Cc3cnn(CCO)c3)CC2)c2cc(Cl)ccc21` [Compound 55] it was at least 500 nM; in that of `CN1C(=O)C2(CCN(C[C@H]3C[C@@H](NC(=O)c4cc(C5CC5)no4)C3)CC2)c2cc(Cl)ccc21` [Compound 60, N-[3-[(5-chloro-1-methyl-2-oxo-spiro[indoline-3,4′-piperidine]-1′-yl)methyl]cyclobutyl]-3-cyclopropyl-isoxazole-5-carboxamide], at least 500 nM; in that of `CN1C(=O)C2(CCN(Cc3cnn(C[C@H]4C[C@@H](NS(=O)(=O)C5CC5)C4)c3)CC2)c2cc(Cl)ccc21` [Compound 65], at least 500 nM.
Turning to `Cc1cc(C(=O)N[C@H]2C[C@H](Cn3cc(CN4CCC5(CC4)C(=O)N(C)c4ccc(Cl)cc45)cn3)C2)on1` [Compound 70], the IC50 was at least 500 nM.
As to `CN1C(=O)C2(CCN(Cc3cnn(CCS(N)(=O)=O)c3)CC2)c2ccccc21` [Compound 72, 2-(4-((I-methyl-2-oxospiro[indoline-3,4′-piperidin]-1′-yl)methyl)-1H-pyrazol-1-yl)ethane-1-sulfonamide], the IC50 was at least 500 nM.
As for `CS(=O)(=O)CCn1cc(CN2CCC3(CC2)C(=O)N(CC(F)F)c2ccccc23)cn1` [Compound 73], the IC50 is at least 500 nM.
For the compound `C[C@H]1C[C@@]2(CCN1Cc1cnn(CCO)c1)C(=O)Nc1ccc(Cl)cc12` [Compound 75], the IC50 was in the range of 50 to 500 nM.
As to `C[C@H]1C[C@@]2(CCN1Cc1cnn(CC(=O)N(C)C)c1)C(=O)Nc1ccc(Cl)cc12` [Compound 76], the IC50 was at most 50 nM.
As to `C[C@H]1C[C@@]2(CCN1Cc1cnn(CCS(C)(=O)=O)c1)C(=O)N(C)c1ccc(Cl)cc12` [Compound 80, (2′S,3R)-5-chloro-1,2′-dimethyl-1′-[[1-(2-methylsulfonylethyl)pyrazol-4-yl]methyl]spiro[indoline-3,4′-piperidine]-2-one trifluoracetic acid], the IC50 is at most 50 nM.
Next, `CN1C(=O)C2(CCN(Cc3cnn(CCS(C)(=O)=O)c3)CC2)c2cc(C(F)(F)F)ccc21` [Compound 83]: at least 500 nM.
Next, `CCc1ccc2c(c1)C1(CCN(Cc3cnn(CCS(C)(=O)=O)c3)CC1)C(=O)N2C` [Compound 84]: at least 500 nM; `CN1C(=O)C2(CCN(Cc3cnn(CCS(C)(=O)=O)c3)CC2)c2cc(OC(F)F)ccc21` [Compound 85]: at least 500 nM; `CS(=O)(=O)CCn1cc(CN2CCC3(CC2)C(=O)N(Cc2ccccc2)c2ccc(OC(F)F)cc23)cn1` [Compound 86]: at least 500 nM.
`CN1C(=O)C2(CCN(Cc3cnn(CCS(C)(=O)=O)c3)CC2)c2cc(OC(F)(F)F)ccc21` [Compound 87]: the IC50 was at least 500 nM.
On to `C[C@H]1C[C@@]2(CCN1Cc1cnn(CCS(C)(=O)=O)c1)OCCc1ccc(Cl)cc12` [Compound 88, (1R,2′S)-7-chloro-2′-methyl-1′-[[1-(2-methylsulfonylethyl)pyrazol-4-yl]methyl]spiro[isochromane-1,4′-piperidine]], for which the IC50 is at most 50 nM.
`CC1COC2(CCN(Cc3cnn(C)c3)CC2)c2ccccc21` (centres unmarked) [Compound 89, 4-methyl-1′-[(1-methylpyrazol-4-yl)methyl]spiro[isochromane-1,4′-piperidine]]: the IC50 was at least 500 nM.
In the case of `Cc1ccc2c(c1)[C@]1(CCN(Cc3cnn(C)c3)[C@@H](C)C1)OCC2` [Compound 91] it was at most 50 nM; in that of `Cc1ccc2c(c1)C1(CCN(Cc3cnn(C)c3)C(C)C1)OCC2` (centres unmarked) [Compound 92], at most 50 nM; in that of `Cc1ccc2c(c1)C1(CCN(Cc3cnn(C)c3)C(C)C1)OCC2` (centres unmarked) [Compound 93], at most 50 nM.
Regarding `Cc1ccc2c(c1)[C@]1(CCN(Cc3cnc(NC(C)(C)CO)nc3)[C@@H](C)C1)OCC2` [Compound 94], the IC50 is at most 50 nM.
`Cc1ccc2c(c1)[C@@]1(CCN(Cc3cnc(NC(C)(C)CO)nc3)[C@@H](C)C1)OCC2` [Compound 95]: the IC50 is at least 500 nM.
In the case of `Cc1ccc2c(c1)[C@]1(CCN(Cc3cn[nH]c3)[C@@H](C)C1)OCC2` [Compound 96] it was at most 50 nM; in that of `Cc1ccc2c(c1)C1(CCN(Cc3cn[nH]c3)[C@@H](C)C1)OCC2` (some centres unmarked) [Compound 97], at least 500 nM.
